Patent US8466104B2, “Therapeutically active alpha MSH analogues” (AbbVie Inc., priority 2005, dated 2013)
Where two headings read alike, the source gives them in different places.

Columns and labels:
[1] = test system: LPS induced TNF-α in plasma; experiment: Inhibition of LPS induced TNFa production in rats in vivo (experimental setup 2); set-up: species or system rat; conditions: for dose at which the maximal inhibitory effect on TNF-a is achieved: doses 50, 200, 1000 μg/kg tested
Description: Inhibition of LPS Induced TNFa Production in Rats In Vivo
Experimental animals. Female Wistar rats (220-240 g) are obtained from the Charles River, Sulzfeld, Germany, and housed in a temperature- (22-24° C.) and moisture-controlled (40-70%) room with a 12 h light-dark cycle (light on from 6:00 A.M. to 6:00 P.M.). The rats are maintained on a standard rodent diet with 140 mmol/kg of sodium, 275 mmol/kg potassium and 23% protein (Altromin International, Lage, Germany) and have free access to water.
Animal preparation. […] After instrumentation, the animals are housed individually for 7-10 days until the day of the experiment.
Experimental protocol. Prior to the experiments all rats are adapted to the restraining cage used for the experiments by training them for two periods of two hours each. On the day of the experiment, the animal is transferred to a restraining cage, and an intravenous infusion of vehicle solution containing 150 mM glucose is started. The infusion rate is 0.5 ml/h throughout the experiment. After a short adaptation period, infusion of lipopolysaccharide (LPS) is started. LPS (E coli serotype 0127 B8, L 3129, Sigma, St. Louis, USA) is given at a dose of 4 mg/kg body weight delivered as an i.v. infusion over 1 hour. Arterial blood samples of 0.3 ml are taken 60, 90, and 120 minutes after start of the LPS infusion and replaced immediately with heparinized blood from a normal donor rat.
In addition to LPS infusion all rats are treated with a bolus injection of: • Vehicle (0.5 mL isotonic saline); • a-MSH in one of the following doses: 50 μg/kg bw; 200 μg/kg/bw or 1000 μg/kg bw; • Test compound in one of the following doses: 50 μg/kg bw; 200 μg/kg/bw or 1000 μg/kg bw.
Measurement of TNF-α in plasma: The blood samples are collected in a prechilled test tube with 0.5 mM EDTA, pH 7.4, and 20×10^6 IU/ml aprotinin. After centrifugation at 4° C., plasma samples are transferred to pre-chilled test tubes and stored at −20° C. for later measurements of TNF-α. TNF-α in plasma is determined by an ELISA (Biotrak, Amersham, UK).
Statistical analyses. Results are presented as means±SE. A two-way ANOVA for repeated measures is used to test for differences between groups. In case of P<0.05, the differences between corresponding periods are evaluated by unpaired t-tests with Bonferroni's correction of the level of significance.

[2] = test system: LPS induced TNF-α production by human leucocytes (PBMC); experiment: Inhibition of LPS induced TNF-a production by human leucocytes in vitro (experimental setup 1); assay type: cell-based; conditions: human leucocyte suspension
Description: Inhibition of LPS Induced TNF-a Production by Human Leucocytes In Vitro
20 mL human blood is collected in vacutainer tubes containing EDTA. PBMC is isolated using Ficoll-Paque Plus as in Amersham's Instruction 71-7167-00 AD, 2002-06. PBMC is counted using Tryphan Blue Solution (Sigma) and incubated in RPMI 1640, (Applichem), supplemented with 10 mM Hepes (Sigma), 2 mM L-glutamin (Sigma), 0.1% BSA (Sigma) and 50U/50 μg/mL Penicillin/Streptomycin (Sigma) in the concentration 5×10^5 cells/mL. The isolated PBMC is incubated in a humidified 5% CO2, 95% air atmosphere, at 37° C., in 24 well flat-bottomed plates (Corning Incorporated) with medium, 10 ng LPS/mL (Sigma), and test compound. After 18 hours the samples are centrifuged, and TNF-α in the supernatants is measured using Tumour Necrosis Factor Alpha [(h)TNF-α] from Human Biotrak ELISA System (Amersham).
The samples are incubated as following per donor: • PBMC's in RPMI (Time Control) • PBMC's with 10 ng LPS/mL (Vehicle) • PBMC's, 10 ng LPS/mL, 10^−17M a-MSH or a-MSH analogue • PBMC's, 10 ng LPS/mL, 10^−15M a-MSH or a-MSH analogue • PBMC's, 10 ng LPS/mL, 10^−13M a-MSH or a-MSH analogue • PBMC's, 10 ng LPS/mL, 10^−11M a-MSH or a-MSH analogue • PBMC's, 10 ng LPS/mL, 10^−9M a-MSH or a-MSH analogue • PBMC's, 10 ng LPS/mL, 10^−7M a-MSH or a-MSH analogue
All samples are diluted from an initial stock solution between 1.4×10^−4M and 1.8×10^−3M. All solutions are handled in BSA coated vials in order to protect against binding of the compound to the surface of the vials.
Data is presented as mean±SE. The effect of test compounds on LPS induced TNF-a liberation is expressed as percentage of the TNF-a accumulation in the LPS-vehicle group. All comparisons are analysed with Student's unpaired t-test. Differences are considered significant at probability levels (p) of 0.05.

Substance: Ac-Glu-Glu-Glu-Glu-Glu-Glu-Ser-Tyr-Ser-Met-Glu-His-Phe-Arg-Trp-Gly-Lys-Pro-Val-NH2 (Ac-EEEEEESYSMEHFRWGKPV-NH2) [a-MSH analogue #6]
- reduction of TNF-a accumulation during iv infusion of LPS [1]: reduce TNF-a accumulation
- inhibitory effect on plasma TNF-a compared to native a-MSH ([1]; iv LPS infusion): markedly more pronounced
- dose at which the maximal inhibitory effect on TNF-a is achieved ([1]; iv LPS infusion): 200 μg/kg body weight
- inhibitory effect on plasma TNF-a compared to native a-MSH ([1]; iv LPS infusion, listed as SEQ ID NO: 2*): higher degree
- reduction of TNF-a accumulation during iv infusion of LPS ([1]; listed as SEQ ID NO: 2*): significantly inhibit
- dose dependent reduction of LPS induced TNF-a accumulation [2]: dose dependently reduce
- inhibitory effect on TNF-a accumulation compared to native a-MSH [2]: markedly more pronounced

Substance: Ac-Lys-Lys-Lys-Lys-Lys-Lys-Ser-Tyr-Ser-Met-Glu-His-Phe-Arg-Trp-Gly-Lys-Pro-(D-Val)-NH2 (KKKKKKSYSMEHFRWGKPV; HELM PEPTIDE1{[ac].K.K.K.K.K.K.S.Y.S.M.E.H.F.R.W.G.K.P.[dV].[am]}$$$$V2.0; SMILES CSCC[C@H](NC(=O)[C@H](CO)NC(=O)[C@H](Cc1ccc(O)cc1)NC(=O)[C@H](CO)NC(=O)[C@H](CCCCN)NC(=O)[C@H](CCCCN)NC(=O)[C@H](CCCCN)NC(=O)[C@H](CCCCN)NC(=O)[C@H](CCCCN)NC(=O)[C@H](CCCCN)NC(C)=O)C(=O)N[C@@H](CCC(=O)O)C(=O)N[C@@H](Cc1c[nH]cn1)C(=O)N[C@@H](Cc1ccccc1)C(=O)N[C@@H](CCCNC(=N)N)C(=O)N[C@@H](Cc1c[nH]c2ccccc12)C(=O)NCC(=O)N[C@@H](CCCCN)C(=O)N1CCC[C@H]1C(=O)N[C@@H](C(N)=O)C(C)C) [a-MSH analogue #7]
- reduction of TNF-a accumulation during iv infusion of LPS [1]: reduce TNF-α accumulation
- inhibitory effect on plasma TNF-a compared to native a-MSH ([1]; iv LPS infusion): markedly more pronounced
- dose at which the maximal inhibitory effect on TNF-a is achieved ([1]; iv LPS infusion): 200 μg/kg body weight
- inhibitory effect on plasma TNF-a compared to native a-MSH ([1]; iv LPS infusion, listed as SEQ ID NO: 3*): higher degree
- reduction of TNF-a accumulation during iv infusion of LPS ([1]; listed as SEQ ID NO: 3*): significantly inhibit
- dose dependent reduction of LPS induced TNF-a accumulation [2]: dose dependently reduce
- inhibitory effect on TNF-a accumulation compared to native a-MSH [2]: markedly more pronounced

Substance: Ac-Lys-Lys-Lys-Lys-Lys-Lys-Ser-Ser-Ile-Ile-Ser-His-Phe-Arg-Trp-Gly-Lys-Pro-Val-NH2 (Ac-KKKKKKSSIISHFRWGKPV-NH2) [a-MSH analogue #4]
- reduction of TNF-a accumulation during iv infusion of LPS [1]: reduce TNF-a accumulation
- inhibitory effect on plasma TNF-a compared to native a-MSH ([1]; iv LPS infusion): markedly more pronounced
- TNF-a concentration in plasma, % of the maximal response (LPS-Vehicle) ([1]; iv LPS infusion, 200 μg/kg body weight iv, 120 minutes after initiation of LPS infusion): 12±2%
- dose at which the maximal inhibitory effect on TNF-a is achieved ([1]; iv LPS infusion): 200 μg/kg body weight
- inhibitory effect on plasma TNF-a compared to native a-MSH ([1]; iv LPS infusion, listed as SEQ ID NO: 13*): higher degree
- reduction of TNF-a accumulation during iv infusion of LPS ([1]; listed as SEQ ID NO: 13*): significantly inhibit
- dose dependent reduction of LPS induced TNF-a accumulation [2]: dose dependently reduce
- inhibitory effect on TNF-a accumulation compared to native a-MSH [2]: markedly more pronounced

Substance: Ac-Lys-Lys-Lys-Lys-Lys-Lys-Ser-Ser-Ile-Ile-Ser-His-(D-Phe)-Arg-Trp-Gly-Lys-Pro-Val-NH2 (KKKKKKSSIISHFRWGKPV; HELM PEPTIDE1{[ac].K.K.K.K.K.K.S.S.I.I.S.H.[dF].R.W.G.K.P.V.[am]}$$$$V2.0; SMILES CC[C@H](C)[C@H](NC(=O)[C@H](CO)NC(=O)[C@H](CO)NC(=O)[C@H](CCCCN)NC(=O)[C@H](CCCCN)NC(=O)[C@H](CCCCN)NC(=O)[C@H](CCCCN)NC(=O)[C@H](CCCCN)NC(=O)[C@H](CCCCN)NC(C)=O)C(=O)N[C@H](C(=O)N[C@@H](CO)C(=O)N[C@@H](Cc1c[nH]cn1)C(=O)N[C@H](Cc1ccccc1)C(=O)N[C@@H](CCCNC(=N)N)C(=O)N[C@@H](Cc1c[nH]c2ccccc12)C(=O)NCC(=O)N[C@@H](CCCCN)C(=O)N1CCC[C@H]1C(=O)N[C@H](C(N)=O)C(C)C)[C@@H](C)CC) [a-MSH analogue #5]
- reduction of TNF-a accumulation during iv infusion of LPS [1]: reduce TNF-a accumulation
- inhibitory effect on plasma TNF-a compared to native a-MSH ([1]; iv LPS infusion): markedly more pronounced
- dose at which the maximal inhibitory effect on TNF-a is achieved ([1]; iv LPS infusion): 200 μg/kg body weight
- inhibitory effect on plasma TNF-a compared to native a-MSH ([1]; iv LPS infusion, listed as SEQ ID NO: 17*): higher degree
- reduction of TNF-a accumulation during iv infusion of LPS ([1]; listed as SEQ ID NO: 17*): significantly inhibit
- dose dependent reduction of LPS induced TNF-a accumulation [2]: dose dependently reduce
- inhibitory effect on TNF-a accumulation compared to native a-MSH [2]: markedly more pronounced
